Results published in PubChem BioAssay (NCI).
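96-well plates; 48 h exposure; 5 concentrations. Endpoints by linear interpolation between flanking doses. Not reached: highest tested concentration assigned. TGI denotes the concentration required for complete inhibition of growth.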

Key:
Test in all cases: DTP human tumour cell line panel, 48 h
HOP-92 NSCLC = test system: HOP-92 NSCLC
EKVX NSCLC = test system: EKVX NSCLC
OVCAR-3 ovarian = test system: OVCAR-3 ovarian
HS 578T breast = test system: HS 578T breast
SK-OV-3 ovarian = test system: SK-OV-3 ovarian
UO-31 renal = test system: UO-31 renal
PC-3 prostate = test system: PC-3 prostate
COLO 205 colon = test system: COLO 205 colon
DU-145 prostate = test system: DU-145 prostate
NCI-H522 lung = test system: NCI-H522 lung
SK-MEL-28 melanoma = test system: SK-MEL-28 melanoma
SK-MEL-5 melanoma = test system: SK-MEL-5 melanoma
SNB-75 CNS = test system: SNB-75 CNS

Structure (SMILES)	TGI (HOP-92 NSCLC) [µM]	TGI (EKVX NSCLC) [µM]	TGI (OVCAR-3 ovarian) [µM]	TGI (HS 578T breast) [µM]	TGI (SK-OV-3 ovarian) [µM]	TGI (UO-31 renal) [µM]	TGI (PC-3 prostate) [µM]	TGI (COLO 205 colon) [µM]	TGI (DU-145 prostate) [µM]	TGI (NCI-H522 lung) [µM]	TGI (SK-MEL-28 melanoma) [µM]	TGI (SK-MEL-5 melanoma) [µM]	TGI (SNB-75 CNS) [µM]
CC(=O)Nc1ccc2c3c(cc(O)c2c1)N(C(=O)CCCCC(=O)Nc1ccc2c4c(cc(O)c2c1)N(C(=O)OC(C)(C)C)CC4CCl)CC3CCl (centres undefined)	32.8	35.2	5.41	> 26.6	> 85.3	> 63.9	> 44.8	4.17	4.39	4.1	23.2	3.18	4.59
C(=C\C(SCc1ccccc1)SCc1ccccc1)/c1ccccc1	> 10	> 10	> 10	> 10	> 10	> 10	> 10	> 10	> 10	> 10	> 10	> 10	> 10
O=C(N/N=C\c1ccc2ccccc2c1)Nc1ccc([N+](=O)[O-])cc1	38.5	> 100	55.4	> 100	> 59.8	> 59.3	> 73	> 60	> 65	> 66.8	> 84.8	> 70.4	> 100
COc1cc2c(cc1OC)CC(N=[N+]=[N-])c1cc(OC)c(OC)cc1/C=C\2 (centres undefined)	> 100	> 100	> 100	> 100	> 100	> 100	> 100	> 100	> 100	> 100	> 100	63.1	> 100
COCc1cc2c(cc1/C=C/[N+](=O)[O-])OCO2	36.8	36.5	33.7	44.3	31.9	30.9	24.6	38.4	34.4	41.2	25.2	37.6	31.9
COc1ccc(CCNC(=O)Cc2cc(OC)c(OC)cc2CO)cc1OC	> 100	> 100	> 100	> 100	> 100	> 100	> 100	> 100	> 100	> 100	> 100	> 100	> 100
C1=C\CCCCN2C[C@H]3CCCC/C=C\CCCCN4CC[C@@H]([C@H](CCCCCC/1)C4)[C@H](C3)C2	> 20.2	22.5	3.48	4.34	22.8	3.16	14.5	4.03	17.2	3.33	3.89	3.12	5.46
COCCOCCOC1=C(Cl)C(=O)c2c(O)ccc(O)c2C1=O	3.95	21.7	3.19	7.9	33.3	4.83	17.5	2.45	22.4	2.99	5.12	3.79	31.5
COc1ccc2c3c1OC1c4[nH]c5ccccc5c4CC4(O)C(C2)N(C)CCC314 (centres undefined)	48.7	> 100	> 100	67.7	> 100	28.1	> 100	37.7	> 100	81.4	34.5	29.5	> 100
Cn1c2ccccc2c(=NNc2ccc(C(=O)O)cc2)c2ccccc21	57.7	32.2	49.6	55.9	56.7	46.9	43.9	32.3	58	27.2	60.7	32.7	56.5
Cc1c(NC(=S)Nc2ccc(Cl)cc2)c(=O)n(-c2ccccc2)n1C	> 100	> 100	> 100	> 100	> 100	> 100	> 100	> 100	> 100	> 100	> 100	> 100	> 100
OC1COC(n2c3ccc(Br)cc3c3ccc4c5ccccc5[nH]c4c32)C(O)C1O (centres undefined)	9.38	17.3	12.5	18.1	17.7	14.2	12	3.65	12.6	11.3	28.9	5.2	14.3
O=S1C2=C(Cc3ccccc3)C(Cc3ccccc3)=C1CCc1cccc(c1)CC2	26.4	26.3	23.5	48.8	24.3	25.8	29.3	58.8	30.3	27.6	42.3	30	27.8
